Results as given in patent US20150125515A1, “NOVEL SP-B & SP-C PEPTIDES, SYNTHETIC LUNG SURFACTANTS, AND USE THEREOF” (UNIVERSITY OF ROCHESTER, priority 2012, published 2015).
One block for each molecule: values may come before it.

Assays:
[1] = tested on: ventilated rabbits with ARDS induced by saline lavage; experiment: Saline-lavage ventilated rabbit model of ARDS: arterial oxygenation and dynamic compliance; assay type: in vivo, New Zealand white rabbits; details: intratracheal 100 mg/kg
Procedure: Saline lavage produces surfactant deficiency, alveolar collapse and lung edema in ventilated rats and rabbits, and is a useful experimental model for human ARDS. A saline-lavage rabbit model for lung injury was thus used to compare synthetic surfactants, with lipids only as negative control. Restoration of lung function was assessed by serial monitoring of gas exchange and lung mechanics. Physiological activity results for selected synthetic SP-B peptides are shown below, and physiological activity results for selected synthetic SP-C peptides are included in following Example 8.
Animal experiments were performed following established protocols approved by the Animal Care and Use Committee at the Los Angeles Biomedical Research Institute at Harbor-UCLA Medical Center. […] In brief, experimental animals were commercially available young adult male New Zealand white rabbits whose respiratory function was followed during mechanical ventilation by measurements of serial arterial blood gases and pulmonary compliance over the first 2 hours after a standardized saline lavage protocol. For this timeframe of study, the model reflected a relatively pure state of surfactant insufficiency in animals with mature lungs. Saline lavage administration was performed after induction of anesthesia, insertion of a venous line in a marginal ear vein, endotracheal intubation and initiation of mechanical ventilation, muscle paralysis, and insertion of a carotid arterial line. Heart rate, arterial blood pressure and rectal temperature were measured continuously. After stabilization on the ventilator, saline lavage was performed with repeated intratracheal instillation and removal of 30 mL of normal saline until the PaO2 dropped below 100 mm Hg (average 3 lavages). Maintenance fluid was provided by a continuous infusion of Lactated Ringer's solution at a rate of 10 ml/kg/h. Edema fluid appearing in the trachea was removed by suctioning. When the PaO2 was stable at less than 100 mm Hg in saline lavaged animals, an experimental or control surfactant mixture was instilled into the trachea at a dose of 100 mg/kg body weight and a concentration of 35 mg/mL. The rabbits were ventilated using a Harvard volume-controlled animal ventilator (tidal volume 7.5 ml/kg, a positive end-expiratory pressure [PEEP] of 3 cm H2O, an inspiratory/expiratory ratio of 1:2, 100% oxygen, and a respiratory rate to maintain a PaCO2 at ˜40 mm Hg). Airway flow and pressures and tidal volume were monitored continuously with a pneumotachograph connected to the endotracheal tube and a pneumotach system. Arterial pH and blood gases were done every 15 minutes. Dynamic lung compliance was calculated by dividing tidal volume/kg body weight by changes in airway pressure (peak inspiratory pressure minus positive end-expiratory pressure) (mL/kg/cmH2O). Animals were sacrificed 2 h after surfactant administration with an overdose of pentobarbital. End-points are pulmonary gas exchange (arterial pH, PaCO2 and PaO2) and pulmonary mechanics (dynamic compliance, postmortem pressure-volume curves). Each treatment group consisted of n=4-9 animals.
The in vivo pulmonary activity of reduced MB DATK and SMB DATK was investigated in comparison with oxidized SMB and MB (positive controls) and lipids alone (negative control) over 120 min, following intratracheal instillation of these surfactants into ventilated rabbits with ARDS induced by saline lavage. Oxidized SMB and MB were used as positive controls, because these SP-B mimics previously indicated high in vivo surfactant activities equal to those of native, full-length porcine SP-B in ventilated rats with ARDS (Walther et al., “Critical Structural and Functional Roles for the N-terminal Insertion Sequence in Surfactant Protein B Analogs,” PLoS One 5:e8672 (2010), which is hereby incorporated by reference in its entirety). […]

[2] = storage in organic solvent or in surfactant lipids for 4-6 weeks; Walther et al. 2007; cited from earlier work
[3] = synthetic peptide; Walther et al. 2000; cited from earlier work
[4] = Pulsating bubble surfactometer, minimum surface tension; assay type: physicochemical; details: Table 8, 37° C, 20 cycles/min, 50% area compression, 2.5 mg/ml phospholipid, Means ± SEM, N = 4
Procedure: (§1) Surface activity of synthetic peptide/lipid surfactant compositions was assessed by either or both of the following methods: (1) measurement of the adsorption of surfactant compositions to the air-water interface as a function of time, and (2) measurement of overall dynamic surface activity on a pulsating bubble surfactometer (general methodological details of these two experimental techniques are described by Notter, Lung Surfactants: Basic Science and Clinical Applications, Marcel Dekker, Inc, New York (2000), which is hereby incorporated by reference in its entirety).
In pulsating bubble studies, surface tension at minimum bubble radius (minimum surface tension) was determined as a function of time during pulsation on a bubble surfactometer (General Transco, Largo, Fla.) (37° C., 20 cycles/min, 50% area compression). A tiny air bubble was formed and pulsated between maximum and minimum radii of 0.55 and 0.4 mm, respectively, and the pressure drop across the air-water interface of the bubble was measured with a precision transducer. Minimum surface tension was calculated from the measured pressure drop at minimum radius (0.4 mm) from the Laplace equation (Enhorning, “Pulsating Bubble Technique for Evaluation of Pulmonary Surfactant,” J Appl Physiol 43:198-203 (1977); Hall et al., “Approximations in the Measurement of Surface Tension with the Oscillating Bubble Surfactometer,” J Appl Physiol 75:468-477 (1993), each of which is hereby incorporated by reference in its entirety). Measurements of overall surface activity on this instrument reflect the combined effects of adsorption and dynamic film compression at a cycling rate (20 cycles/min), temperature (37° C.), and area compression (50% compression from maximum to minimum area) relevant for the mammalian lungs in vivo (Notter, Lung Surfactants: Basic Science and Clinical Applications, Marcel Dekker, Inc, New York (2000); Enhorning, “Pulsating Bubble Technique for Evaluation of Pulmonary Surfactant,” J Appl Physiol 43:198-203 (1977); Notter et al., “Pulmonary Surfactant: Physical Chemistry, Physiology and Replacement,” Rev Chem Eng 13:1-118 (1997), each of which is hereby incorporated by reference in its entirety).

[5] = Adsorption of surfactant compositions to the air-water interface (surface pressure vs time, Wilhelmy method); assay type: physicochemical; details: Means ± SEM
Procedure: as §1
In adsorption studies, a given surfactant mixture was injected at time zero beneath the surface of a stirred surfactant-free subphase, and surface pressure (defined as surface tension lowering below that of the pure subphase) was measured as a function of time from the force on a hanging platinum slide (“Wilhelmy” method). By definition, higher surface pressure corresponds to lower surface tension (Notter, Lung Surfactants: Basic Science and Clinical Applications, Marcel Dekker, Inc, New York (2000)).

[6] = Table 7, 0.0625 mg phospholipid/ml of subphase, normal saline pH 7.0, 37 ± 0.5° C, N = 4
[7] = Table 9, phospholipase-resistant lipids, 0.0625 mg phospholipid/ml, n = 4
[8] = Table 13, SP-B plus SP-C peptide (1.5%:1.5%) with resistant lipids or glycerophospholipids, 0.0625 mg phospholipid/ml, n = 4

Molecule: GIPFFPVHLKRLLIVVVVVVLIVVVIVGALLMGL [SP-Cff]
Oxygenation and lung compliance after instillation (FIG. 2) ([1]; SP-C mimics 3.0% by weight in 5:3:2 (weight ratio) DPPC:POPC:POPG, PBS pH 7.4, 35 mg/mL): much less so
relative order of pulmonary activity in terms of oxygenation and lung compliance ([1]; SP-C mimics 3.0% by weight in 5:3:2 DPPC:POPC:POPG): SP-C33˜SP-Css ion-lock>SP-Cff>Lipids alone
conformational stability upon storage (FTIR) [2]: self-associates to form β-sheet aggregates
solubility in chloroform-methanol [3]: low solubility

Minimum Surface Tension at 0.25 min of bubble pulsation ([4]; 0.25 min): 31.2 ± 2.0 mN/m
Minimum Surface Tension at 0.5 min of bubble pulsation ([4]; 0.5 min): 27.1 ± 1.8 mN/m
Minimum Surface Tension at 1 min of bubble pulsation ([4]; 1 min): 21.2 ± 1.5 mN/m
Minimum Surface Tension at 2 min of bubble pulsation ([4]; 2 min): 14.6 ± 1.2 mN/m
Minimum Surface Tension at 5 min of bubble pulsation ([4]; 5 min): 7.8 ± 1.7 mN/m
Minimum Surface Tension at 10 min of bubble pulsation ([4]; 10 min): 1.5 ± 1.0 mN/m
Minimum Surface Tension at 15 min of bubble pulsation ([4]; 15 min): <1 mN/m
Adsorption Surface Pressure at time 0 min [5, 6]: 0 ± 0.0 mN/m
Adsorption Surface Pressure at time 1 min [5, 6]: 12.9 ± 2.9 mN/m
Adsorption Surface Pressure at time 2 min [5, 6]: 16.0 ± 1.6 mN/m
Adsorption Surface Pressure at time 5 min [5, 6]: 17.8 ± 1.7 mN/m
Adsorption Surface Pressure at time 10 min [5, 6]: 18.0 ± 1.7 mN/m
Adsorption Surface Pressure at time 15 min [5, 6]: 18.2 ± 1.7 mN/m
Adsorption Surface Pressure at time 0 min [5, 7]: 0.0 ± 0.0 mN/m
Adsorption Surface Pressure at time 1 min [5, 7]: 12.9 ± 2.9 mN/m
Adsorption Surface Pressure at time 2 min [5, 7]: 16.0 ± 1.6 mN/m
Adsorption Surface Pressure at time 5 min [5, 7]: 17.8 ± 1.7 mN/m
Adsorption Surface Pressure at time 10 min [5, 7]: 18.0 ± 1.7 mN/m
Adsorption Surface Pressure at time 15 min [5, 7]: 18.2 ± 1.7 mN/m
Adsorption Surface Pressure at time 0 min [5, 8]: 0.0 ± 0.0 mN/m
Adsorption Surface Pressure at time 1 min [5, 8]: 12.9 ± 2.9 mN/m
Adsorption Surface Pressure at time 2 min [5, 8]: 16.0 ± 1.6 mN/m
Adsorption Surface Pressure at time 5 min [5, 8]: 17.8 ± 1.7 mN/m
Adsorption Surface Pressure at time 10 min [5, 8]: 18.0 ± 1.7 mN/m
Adsorption Surface Pressure at time 15 min [5, 8]: 18.2 ± 1.7 mN/m
Molecule: CCCCCCCCCCCCCCCCOCC(COP(=O)(O)CCC[N+](C)(C)C)OCCCCCCCCCCCCCCCC (racemic) [DEPN-8, [(±)-trimethyl(3-phosphonopropyl)ammonium, mono(2,3-bis(hexadecyloxy)propyl ester]]
